“Also recorded” adds a separate entry of the source. Counter-ions that a name gives are not always drawn. Values belong to the compound of their own block, whether it stands above or below them.
Assays:
[1] = test system: Experimental Autoimmune Encephalomyelitis (EAE) in C57BL/6 mice; assay: EAE model, treatment started at day 16 after MOG booster (established symptoms); format: in vivo, mouse; details: 250 mg/kg intraperitoneally, started 16 days after MOG35-55 booster
From the text: One method of showing the efficacy of the disclosed compounds for the treatment of various conditions associated with multiple sclerosis (MS) is its ability to inhibit effects of Experimental Autoimmune Encephalomyelitis (EAE) in laboratory animals. EAE is an animal model for MS, which entails inducing a T-cell-mediated autoimmune disease against myelin basic protein in certain susceptible mammalian species. The EAE model is an appropriate method for studying the inflammation of the brain and spinal cord associated with MS (see Bolton, C. Mult. Scler. 1995; 1(3); 143-9). […] The symptoms that are observed in animals vary from mild gait disturbances and tail atony to complete paralysis and death. These clinical manifestations are given a clinical score ranging from 0 to 5. In the present situation, the scores were based on the following criteria: clinical score 0, no signs; 1.0 limp tail; 2.0 limptail with loss of righting; 3.0 paralysis of single hind limb; 4.0 paralysis of both hind limbs; 5.0 death. Weight loss typically occurs. In animals that survive, spontaneous recovery occurs, accompanied by variable recovery of most motor function. Depending on the species, allergen, and methodology used, animals tested by the EAE model may experience a single (acute EAE) or several (chronic relapsing EAE) attacks. […]

[2] = test system: Experimental Autoimmune Encephalomyelitis (EAE) in C57BL/6 mice; assay: Experimental Autoimmune Encephalomyelitis (EAE) model, treatment started two days prior to MOG booster; format: in vivo, mouse; details: for effect on EAE clinical symptoms (in words): treated versus control animals, FIG. 1, 3, 4, 5
From the text: One method of showing the efficacy of the disclosed compounds for the treatment of various conditions associated with multiple sclerosis (MS) is its ability to inhibit effects of Experimental Autoimmune Encephalomyelitis (EAE) in laboratory animals. EAE is an animal model for MS, which entails inducing a T-cell-mediated autoimmune disease against myelin basic protein in certain susceptible mammalian species. The EAE model is an appropriate method for studying the inflammation of the brain and spinal cord associated with MS (see Bolton, C. Mult. Scler. 1995; 1(3); 143-9). […] The symptoms that are observed in animals vary from mild gait disturbances and tail atony to complete paralysis and death. These clinical manifestations are given a clinical score ranging from 0 to 5. In the present situation, the scores were based on the following criteria: clinical score 0, no signs; 1.0 limp tail; 2.0 limptail with loss of righting; 3.0 paralysis of single hind limb; 4.0 paralysis of both hind limbs; 5.0 death. Weight loss typically occurs. In animals that survive, spontaneous recovery occurs, accompanied by variable recovery of most motor function. Depending on the species, allergen, and methodology used, animals tested by the EAE model may experience a single (acute EAE) or several (chronic relapsing EAE) attacks.
Experimental autoimmune encephalomyelitis was induced in C57BL/6 mice using the following protocol. Female C57BL/6 mice (6-8 weeks old, N=24) purchased from Jackson Labs, were allowed to acclimate for one week prior to EAE induction. EAE was induced using myelin oligodendrocyte glycoprotein peptide 35-55 (MOG35-55, MEVGWYRSPFSRVVHL-YRNGK). The MOG35-55 injection with Freund's adjuvant was administered subcutaneously adjacent to the hind leg. At the same time, the animals received an injection of pertussis toxin (200 ng in 200 μL phosphate buffered saline (PBS), intraperitoneally), and a second pertussis toxin injection two days later. Mice were given a booster injection of MOG35-55 at day No. 7. Two or three days after the second MOG booster injection, some animals begin to show signs of EAE. The mice are monitored daily using the clinical scoring system described above.
In addition, Didox delayed the onset of the disease in the minority of animals in which it occurred in the Didox treatment group, 7.3 days versus 4.4 days for the control group. […] For example, at the plateau of the clinical condition on day 12 for both the Didox and saline (control) group, represented by the open squares ? the mean clinical score was only 0.45 for the Didox treated cohort compared to a score of 1.9 for the control group. […]

EAE mice = assay: EAE model, treatment started when mice had reached clinical stage 2 or more (clinical score); format: in vivo, mouse; details: treatment begun at clinical stage 2 or more
mouse cytokines in serum = assay: Serum cytokine levels in EAE mice, BioPlex multiplexable bead assay; format: in vivo
Protocol: The effect of Didox on cytokine levels was tested. As before, two groups were assembled, one treated with Didox while the other group served as a control and only received saline injections. […] EAE was initiated in all animals depicted at the same time and in an identical manner. All animals were of the same experimental time point at the time of serum collection for cytokine analysis. The Didox treated group experienced a decrease of two points in the EAE clinical score. The analysis of cytokine levels was performed by utilizing a BioPlex® multiplexable bead assay method that simultaneously quantitates mouse cytokines in diverse matrices. In this example the assay was carried out on serum derived from mice of the two groups (Didox and saline treated) at day 12 post MOG induced EAE. Blood was obtained by cardiac aspiration from mice that had been euthanized by CO2. Serum was obtained from clotted blood after centrifugation and stored at […] until assayed. For analysis the serum was diluted and analyzed with the Bio-Plex® assay system. The system utilized beads that are internally labeled with two fluorescent dyes (one for identification of the bead and one for covalent attachment of ligands (or biomolecules). Once an antibody was conjugated to the bead a sample of serum was added and followed by a reporter antibody that is often biotinylated. Following incubation with biotinylated reporter antibody, strepavidin/phycoerythrin was added to make detection possible. The system can profile up to 23 mouse cytokines. Table B indicates the amount of cytokine present (pg/mL) in the serum.

activated T-cells = assay: Secretion of inflammatory cytokines by activated T-Cells in vitro; format: cell-based
From the text: The purpose of this example was to determine whether Didox treatment of T-Cells in vitro produced similar data as was found in vivo using the EAE model.

[3] = test system: T-cells in splenocytes from C57BL/6 mice; assay: T-cell proliferation of CD3/CD28 stimulated splenocytes (BrdU); format: cell-based, mouse; details: 48 hours with compound, b156: at 100 μM
Protocol: A series of in vitro experiments were conducted to ascertain the effect of Didox on immune function. A mixed splenocyte preparation was divided into two portions, one was stimulated with CD3 and CD28 to specifically activate T-cells while the other served as a control. The splenocytes were isolated from female C57BL/6 mice (6-8 weeks old) and the splenocytes were incubated for 24 hours with CD3/CD28 coated wells, after which Didox was added at varying concentrations. The cells were then incubated for an additional 48 hours. Each well was labeled with BrdU for the last 24 hours and the wells analyzed according to the manufacturer's instructions (Roche-Cell Proliferation Chemiluminescent assay kit). FIG. 7 depicts the results of these experiments. The solid black bars represent un-stimulated splenocytes while the white bars the effect of varying concentrations of Didox on the amount of T-Cells present.

[4] = test system: activated microglia isolated from rat brain; assay: Nitrite production by LPS-activated microglia; format: cell-based
From the text: To further evaluate the beneficial effect of Didox on brain tissue, we analyzed the ability of Didox to attenuate the production of nitrite by activated microglia, which are major contributors to the inflammatory status of EAE mice. Microglia were isolated from rat brain and activated with lipopolysaccharide (LPS) in the presence or absence of increasing concentrations of Didox. […] This observation, together with the attenuation of the T-cell inflammatory response would both contribute to the biological activity of Didox to reduce the severity of EAE.

[5] = clinical score 0 to 5, treated from day -2 before MOG booster
[6] = serum, treated versus saline treated EAE mice
[7] = 48 hours treatment of activated T-cells, even at 5 μM

melting point: 193 °C (dec.)
SMILES: NC(=NO)c1ccc(O)c(O)c1 (as salt: hydrochloride) [Example I, 3,4-dihydroxybenzamidoxime]

SMILES: O=C(NO)c1ccc(O)c(O)c1 [Didox, N,3,4-trihydroxybenzamide]
reduction in average clinical score [1]: more than 50%
Max. Score [2, 5]: 3
Max. Score (mean +/− SEM) [2, 5]: 0.45 +/− 0.31
percentage of animals that exhibited any clinical symptom of the disease ([2]; control 78%): 27%
mean clinical score ([2]; day 12, plateau of the clinical condition, control 1.9): 0.45
onset of the disease ([2]; in the minority of animals in which it occurred, control 4.4 days): 7.3 days
Day of Disease Onset ([2]; treated from day -2 before MOG booster): 7.33 +/− 1.73
effect on EAE clinical symptoms (in words) [2]: reduced the severity and delayed the onset of the clinical manifestation of the disease
decrease in the EAE clinical score (EAE mice): two
IL-4 in serum (mouse cytokines in serum; day 12 post MOG induced EAE, control 0 ± 0): 0 ± 0 pg/mL
IL-2 in serum (mouse cytokines in serum; day 12 post MOG induced EAE, control 2 ± 2): 0.7 ± 0.2 pg/mL
IL-5 in serum (mouse cytokines in serum; day 12 post MOG induced EAE, control 6 ± 5): 2 ± 1 pg/mL
GM-CSF in serum (mouse cytokines in serum; day 12 post MOG induced EAE, control 7 ± 4): 0.4 ± 0.5 pg/mL
IFN-g in serum (mouse cytokines in serum; day 12 post MOG induced EAE, control 10 ± 3): 3 ± 1 pg/mL
IL-10 in serum (mouse cytokines in serum; day 12 post MOG induced EAE, control 16 ± 7): 3 ± 1 pg/mL
IL-17 in serum (mouse cytokines in serum; day 12 post MOG induced EAE, control 83 ± 29): 2 ± 0.2 pg/mL
TNF-α in serum (mouse cytokines in serum; day 12 post MOG induced EAE, control 219 ± 132): 61 ± 46 pg/mL
IL-12 in serum (mouse cytokines in serum; day 12 post MOG induced EAE, control 559 ± 276): 36 ± 14 pg/mL
reduction for IL-12 (mouse cytokines in serum; [6]): 15 fold
reduction for Il-10 (mouse cytokines in serum; [6]): 5.0 fold
reduction for TNF levels (mouse cytokines in serum; [6]): 3.5 fold
reduction in IL-17 (mouse cytokines in serum; [6]): approximately 35 fold
secretion of IFNγ (activated T-cells; 24 hours treatment): does not reduce the levels of these cytokines to background; also recorded: reduced to less than half the level secreted by the untreated activated T-cells
secretion of IL-17 (activated T-cells; 24 hours treatment): does not reduce the levels of these cytokines to background
secretion of IFNγ (activated T-cells; [7]): down to baseline levels
secretion of IL-17 (activated T-cells; [7]): down to baseline levels
level of T-Cell proliferation [3]: reduces the level of T-cells to the amount present in un-stimulated cells; also recorded: reduced to that for un-stimulated cells
nitrite production ([4]; 100 μM treatment): reached base line levels
nitrite production, dose dependence ([4]; increasing concentrations): dose dependent attenuation of nitrite production

SMILES: NC(=O)NO [hydroxyurea, reference compound]
effect on EAE clinical symptoms (in words) [2]: did not show evidence of treating neurodegenerative diseases

Reference: patent publication US9526707B2, “Methods for treating or preventing neuroinflammation or autoimmune diseases” (priority 2007, dated 2016)
